Experiments:
[1] = target: monoclonal antibody A5, specific for (raised against) the phosphonate hapten 3; experiment: Fluorescence quenching binding of inhibitor to antibody A5; settings: from fluorescence quenching experiments; inhibitor of the antibody-catalyzed reaction
Experimental: (§1) Greater than 25 turnovers were measured with no apparent change in Vmax.

[2] = system: monoclonal antibody A5, specific for (raised against) the phosphonate hapten 3; experiment: Antibody A5-catalysed NaBH3CN-dependent reduction of ketoamide 1, steady-state kinetics (HPLC, Lineweaver Burk); assay type: biochemical; settings: substrate ketoamide 1; 13μM antibody, 1mM NaBH3CN, 22° C, 50mM NaCl, 50mM MES buffer, 10% methanol
Experimental: Monoclonal antibodies specific for the phosphonate 3 were purified to homogeneity by chromatography on protein-A coupled sepharose, as determined by polyacrylamide gel electrophoresis. Eight of these antibodies were assayed for their ability to reduce the ketoamide 1 by high performance liquid chromatography (HPLC). The (S)-(--)-α-methylbenzylamine group was incorporated into the ketoacid substrate to facilitate analysis of reaction specificity, it having previously been shown that antibodies specific for the phosphonate 3 are relatively insensitive to substitutions in the aliphatic linker. The ketoamide 1 was prepared by a modification of the method of Westerberg and coworkers (Westerberg, D.A., et aL, J. Med Chem. 1989, 32, 236) for the preparation of 4-nitrophenylpyruvic acid. […]
Consequently, all kinetic parameters were measured in the presence of 13μM antibody, 1mM NaBH3 CN at 22° C in 50mM NaCl, 50mM MES buffer. […] Initial reaction rates were determined by measuring the amounts of 1 and 2 (both diastereomers) relative to a p-cresol internal standard using analytical reverse-phase HPLC (Rainin CYNAMAX MICROSORB C18, a common silica-C18 HPLC column packing, with a continuous phase consisting of 40-80% of TFA/CH3 CN in 0.1% aqueous TFA).
as §1

COP(=O)(O)Oc1ccc([N+](=O)[O-])cc1 [4-nitrophenyl methylphosphate] gave a Kd [1] of 610 nM.
For CC(NC(=O)C(=O)Cc1ccc([N+](=O)[O-])cc1)c1ccccc1 (stereo not drawn) [compound 1, 1-(p-nitrobenzyl)-2-(α-methyl-benzylamino)ethanedione], the Km [2] was 1240 µM and the κcat [2] was 0.104 min⁻¹.
